In patent US10092537B2, “Use for PAI-1 inhibitor” (RENASCIENCE CO., LTD., priority 2013, dated 2018):

Tests used:
[1] = tested on: CML cells (32Dp210-GFP cells); assay: Chronic myelogenous leukemia model mice, imatinib and compound c (Experimental Example 12); type: in vivo
Experimental: Chronic myelogenous leukemia model mice prepared in the same manner as in Experimental Example 11 were divided into the following 3 groups (each group: n=10), and the groups were administered respective test drugs in accordance with the protocol shown in FIG. 15A.
Group 1: placebo group (physiological saline was administered via gavage)
Group 2: imatinib group (imatinib [150 mg/kg/day] was administered via gavage)
Group 3: imatinib+compound c group (imatinib [150 mg/kg/day] and compound c [10 mg/kg/day] were administered via gavage)
8 days (day 8) after the day on which CML cells (32Dp210-GFP cells) were intravenously inoculated (day 0), administration of the test drugs to the groups was started. The placebo group and the imatinib group were administered the respective test drugs once a day from day 8 to day 14 (7 doses in total). The imatinib+compound c group was administered imatinib once a day from day 8 to day 14 (7 doses in total), and also administered compound c once a day from day 8 to day 14 (7 doses in total).

Her2-A20 cell = Her2-A20 cell subcutaneous tumor, Herceptin and compound c (Experimental Example 19); type: in vivo, BALB/c-nude mice; conditions: Herceptin 20 mg/kg i.p. (2 doses) + compound c 10 mg/kg/day oral; 15 days after administration
Experimental: At first, A20 cell line (mouse B lymphoma) was transfected with human Her2 cDNA using MIGR1 vector to prepare transformed cells (hereinafter, “Her2-A20 cell”). The Her2-A20 cells (5×10^6) were subcutaneously inoculated into BALB/c-nude mice. […] Compound c or physiological saline was administered once a day, 5 doses in total (day 0 to day 4). […] Compound c or physiological saline was administered once a day, 7 doses in total (day 7 to day 13).

SMILES: O=C(Nc1ccc(Cl)cc1C(=O)O)c1cccc(-c2ccccc2)c1 [Example 4, 2-[(biphenyl-3-ylcarbonyl)amino]-5-chlorobenzoic acid]
- survival rate on day 40 ([1]; imatinib 150 mg/kg/day + compound c 10 mg/kg/day via gavage, day 8 to day 14): 70%
- median survival period ([1]; imatinib 150 mg/kg/day + compound c 10 mg/kg/day, placebo 15.5 days): 40 days
- tumor volume versus other groups (Her2-A20 cell): significantly smaller
